Starred links: 1 amine or outer side, 2 acyl side, 3 side chain; linkers in the order of their positions; H or OH if unused. Non-standard residues stand in square brackets, D forms with d. Residues, ends and D or L forms follow the SMILES beside them. *: point of attachment. DOTA = O=C(O)CN1CCN(CC(=O)O)CCN(CC(=O)*)CCN(CC(=O)O)CC1; d(γGlu) = O=C(O)[C@@H](CCC(=O)[*:2])N[*:1]; Bip = N[C@@H](Cc1ccc(-c2ccccc2)cc1)C(=O)O; 1Nal = N[C@@H](Cc1cccc2ccccc12)C(=O)O; 2Nal = N[C@@H](Cc1ccc2ccccc2c1)C(=O)O; PEG5 = NCCOCCOCCOCCOCCOCCC(=O)O; NMeNle = CCCC[C@H](NC)C(=O)O; Nle = CCCC[C@H](N)C(=O)O
The compounds below were run against T1, CCK-2R (Rattus norvegicus, UniProt P30553) (assay: Determination of IC50: CCK-2R affinity on AR4-2J cells, competition with [^177Lu]Lu-DOTA-PP-F11N). Details: AR4-2J cells; references ^natLu-labeled, other peptides without chelator; read-out: IC50 [nM] (n = 3).
T1 construct: The CCK-2R expressing rat pancreatic tumor cells AR4-2J; host or cells: AR4-2J rat pancreatic tumor cells
T1 sequence (P30553 1-452): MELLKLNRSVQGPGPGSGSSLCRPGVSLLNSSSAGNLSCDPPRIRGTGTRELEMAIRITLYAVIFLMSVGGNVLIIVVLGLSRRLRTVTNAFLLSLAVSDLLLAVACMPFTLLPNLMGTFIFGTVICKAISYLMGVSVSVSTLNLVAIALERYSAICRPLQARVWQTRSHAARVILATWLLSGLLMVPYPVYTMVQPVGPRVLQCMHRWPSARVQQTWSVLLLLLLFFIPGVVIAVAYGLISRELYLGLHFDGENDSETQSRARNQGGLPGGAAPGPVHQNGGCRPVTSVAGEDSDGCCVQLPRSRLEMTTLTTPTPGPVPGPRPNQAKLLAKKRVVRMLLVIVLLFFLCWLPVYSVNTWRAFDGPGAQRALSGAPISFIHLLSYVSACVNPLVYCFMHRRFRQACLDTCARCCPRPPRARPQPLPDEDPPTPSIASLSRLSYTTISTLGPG
Type: binding
Experimental: AR4-2J cells were harvested 24 ± 2 h before the experiment and seeded in 24-well plates (2.0 × 10^5 cells in 1 mL/well). After removal of the nutrient medium (RPMI 1640, 5 mM L-Gln, 5 mL non-essential amino acids (100×), 10% FCS), the cells were washed once with 500 µL PBS. Thereafter, 200 µL nutrient medium (5% BSA, v/v) were added. Next, 25 µL per well of solutions containing either nutrient medium (5% BSA, v/v) as control or the respective compound in increasing concentration (10^-10 - 10^-4 M), were added with subsequent addition of 25 µL [^177Lu]Lu-DOTA-PP-F11N (0.3 pmol/well).
All experiments were performed in triplicate for each concentration. After 3 h incubation at 37 °C, the experiment was terminated by removal of the medium and consecutive rinsing with 300 µL PBS. The media of both steps were combined in one fraction and represent the amount of free radiolabeled reference. Afterwards, the cells were lysed with 300 µL of 1 M NaOH for at least 15 min and united with the 300 µL NaOH of the following washing step. Quantification of bound and free radiolabeled reference was accomplished in a γ-counter. IC50 determination for each conjugate was repeated twice.

Row | Compound | IC50 [nM]
1 | CCCC[C@H](NC(=O)[C@H](Cc1c[nH]c2ccccc12)NC(=O)CNC(=O)[C@H](Cc1ccc(O)cc1)NC(=O)[C@H](C)NC(=O)CC[C@@H](N)C(=O)O)C(=O)N[C@@H](CC(=O)O)C(=O)N[C@@H](Cc1ccc(-c2ccccc2)cc1)C(N)=O [CCK-38, H-γ-glu-Ala-Tyr-Gly-Trp-Nle-Asp-Bip-NH2] ({d(γGlu)}-AYGW[Nle]D[Bip]-NH2) | > 1000
2 | CCCC[C@@H](C(=O)N[C@@H](CC(=O)O)C(=O)N[C@@H](Cc1ccc2ccccc2c1)C(N)=O)N(C)C(=O)[C@@H](N)Cc1c[nH]c2ccccc12 [H-Trp-(N-Me)Nle-Asp-2-Nal-NH2] (H-W[NMeNle]D[2Nal]-NH2) | 102 ± 9
3 | CCCC[C@H](NC(=O)[C@@H](N)Cc1c[nH]c2ccccc12)C(=O)N[C@@H](CC(=O)O)C(=O)N[C@@H](Cc1ccccc1)C(N)=O [H-Trp-Nle-Asp-Phe-NH2] (H-W[Nle]DF-NH2) | 466 ± 88
4 | CCCC[C@H](NC(=O)[C@@H](N)Cc1c[nH]c2ccccc12)C(=O)N[C@@H](CC(=O)O)C(=O)N[C@@H](Cc1cccc2ccccc12)C(N)=O [H-Trp-Nle-Asp-1-Nal-NH2] (H-W[Nle]D[1Nal]-NH2) | 297 ± 16
5 | CCCC[C@@H](C(=O)N[C@@H](CC(=O)O)C(=O)N[C@@H](Cc1c[nH]c2ccccc12)C(N)=O)N(C)C(=O)[C@@H](N)Cc1c[nH]c2ccccc12 [H-Trp-(N-Me)Nle-Asp-Trp-NH2] (H-W[NMeNle]DW-NH2) | 18.8 ± 0.5

More lines, now with the values ahead:

Row | IC50 [nM] | Compound
6 | 11.2 ± 0.2 | CSCC[C@H](NC(=O)[C@H](Cc1c[nH]c2ccccc12)NC(=O)CNC(=O)[C@H](Cc1ccc(O)cc1)NC(=O)[C@H](C)NC(=O)[C@@H](CCC(=O)O)NC(=O)[C@@H](CCC(=O)O)NC(=O)[C@@H](CCC(=O)O)NC(=O)[C@@H](CCC(=O)O)NC(=O)[C@@H](CCC(=O)O)NC(=O)[C@@H](CCC(=O)O)NC(=O)CN1CCN(CC(=O)O)CCN(CC(=O)O)CCN(CC(=O)O)CC1)C(=O)N[C@@H](CC(=O)O)C(=O)N[C@@H](Cc1ccccc1)C(N)=O [CP04, DOTA-glu^1-glu^2-glu^3-glu^4-glu^5-glu^6-Ala^7-Tyr^8-Gly^9-Trp^10-Met^11-Asp^12-Phe^13-NH2, reference compound]
7 | 5.7 ± 0.5 | CCCC[C@@H](C(=O)N[C@@H](CC(=O)O)C(=O)N[C@@H](Cc1ccc(O)cc1)C(N)=O)N(C)C(=O)[C@@H](N)Cc1c[nH]c2ccccc12 [H-Trp-(N-Me)Nle-Asp-Tyr-NH2] (H-W[NMeNle]DY-NH2)
8 | 4.9 ± 0.8 | CCCC[C@@H](C(=O)N[C@@H](CC(=O)O)C(=O)N[C@@H](Cc1cccc2ccccc12)C(N)=O)N(C)C(=O)[C@H](Cc1c[nH]c2ccccc12)NC(=O)CNC(=O)[C@H](Cc1ccc(O)cc1)NC(=O)[C@H](C)NC(=O)CC[C@@H](NC(=O)CN1CCN(CC(=O)O)CCN(CC(=O)O)CCN(CC(=O)O)CC1)C(=O)O [DOTA-γ-MGS5, DOTA-γ-glu^6-Ala^7-Tyr^8-Gly^9-Trp^10-(N-Me)Nle^11-Asp^12-1-Nal^13-NH2, reference compound] ({DOTA-d(γGlu)}-AYGW[NMeNle]D[1Nal]-NH2)
9 | 4.5 ± 0.6 | CCCC[C@@H](C(=O)N[C@@H](CC(=O)O)C(=O)N[C@@H](Cc1ccccc1)C(N)=O)N(C)C(=O)[C@@H](N)Cc1c[nH]c2ccccc12 [H-Trp-(N-Me)Nle-Asp-Phe-NH2] (H-W[NMeNle]DF-NH2)

Same assay, conditions: text values without printed unit; ^natLu-labeled; read-out: IC50

Row | IC50 [nM] | Compound
10 | 8.84 ± 1.25 | CCCC[C@@H](C(=O)N[C@@H](CC(=O)O)C(=O)N[C@@H](Cc1cccc2ccccc12)C(N)=O)N(C)C(=O)[C@H](Cc1c[nH]c2ccccc12)NC(=O)CCOCCOCCOCCOCCOCCNC(=O)CN1CCN(CC(=O)O)CCN(CC(=O)O)CCN(CC(=O)O)CC1 [DOTA-CCK-50, DOTA-(PEG)4-Trp-(N-Me)Nle-Asp-1-Nal-NH2] ({DOTA-PEG5}-W[NMeNle]D[1Nal]-NH2)

Reference: EP4631959A2, “NOVEL MINIGASTRIN-DERIVED CHOLECYSTOKININ 2 RECEPTOR BINDING MOLECULES FOR IMAGING AND TARGETED RADIOTHERAPY” (priority 2022, dated 2024)
